Source: patent US9890166B2, “Imidazopyrrolidine derivatives and their use in the treatment of disease” (NOVARTIS AG, priority 2013, dated 2018)

Assays:
BRD4 (His-Brd4(44-477)) = BRD4 (His-Brd4(44-477)) (Homo sapiens (Human), UniProt O60885); test: TR-FRET in-vitro binding assay for BRD4; conditions: single determination or n ≧ 2 independent determinations, read-out: Biochemical IC50 BRD4
Procedure: (§1) TR-FRET In-Vitro Binding Assays for BRD2, BRD3, and BRD4:
(§2) All assays were performed in 384 well microtiter plates. Each assay plate contained 8-point serial dilutions for 40 test compounds, plus 16 high- and 16 low controls. Liquid handling and incubation steps were done on an Innovadyne Nanodrop Express equipped with a robotic arm (Thermo CatX, Perkin Elmer/Caliper Twister II) and an incubator (Liconic STX40, Thermo Cytomat 2C450). The assay plates were prepared by addition of 50 nl per well of compound solution in 90% DMSO HummingBird nanodispenser (Zinsser Analytic). […] Reactions were incubated at 30° C. for 35 minutes. […] After 35 minutes incubation at 30° C., plates were measured in a Perkin Elmer EnVision multilabel reader.
(§3) Preparation of Compound Dilutions
(§4) Test compounds were dissolved in DMSO (10 mM) and transferred into 1.4 mL flat bottom or V-shaped Matrix tubes carrying a unique 2D matrix. The stock solutions were stored at […] if not used immediately. For the test procedure the vials were defrosted and identified by a scanner whereby a working sheet was generated that guided the subsequent working steps.
(§5) Compound dilutions were made in 96 well plates. This format enabled the assay of maximally 40 individual test compounds at 8 concentrations (single points) including 4 reference compounds, if desired (known BET inhibitors from the prior art, for this and other assays of the type disclosed herein). The dilution protocol included the production of “pre-dilution plates”, “master plates” and “assay plates”.
(§6) Pre-Dilution Plates: 96 polypropylene well plates were used as pre-dilution plates. A total of 4 pre-dilution plates were prepared including 10 test compounds each on the plate positions A1-A10, one standard compound at A11 and one DMSO control at A12. All dilution steps were done on a HamiltonSTAR robot.
(§7) These plates were used directly for the assay which was performed in a total volume of 13.55 μL.

THP-1 cells = test: Cell growth inhibition assay (CellTiter-Glo), THP-1; conditions: for GI50: Homo sapiens, THP-1, read-out: THP-1 GI50; for THP-1 TGI: THP-1 cells, total growth inhibition, CellTiter-Glo;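 on all read-outs here: viability read as cellular ATP luminescence after 4 days, 3-fold dilution series from 10 µM, DMSO vehicle-treated cells taken as 100%, cell-free medium wells as −100%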
K-562 cells = test: Cell growth inhibition assay (CellTiter-Glo), K-562; conditions: for GI50: Homo sapiens, K562, read-out: K-562 GI50; for K-562 TGI: K-562 cells, total growth inhibition, CellTiter-Glo;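 on all read-outs here: cellular ATP measured by luminescence after 4 days of exposure, 3-fold dilution series from 10 µM, DMSO vehicle-treated cells define 100%, cell-free medium wells −100%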
MV-4-11 cells = test: Cell growth inhibition assay (CellTiter-Glo), MV-4-11; conditions: for GI50: Homo sapiens, MV4-11, read-out: MV-4-11 GI50; for MV-4-11 TGI: MV-4-11 cells, total growth inhibition, CellTiter-Glo;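 on all read-outs here: cellular ATP luminescence after 4 days, 3-fold dilution series from 10 µM top dose, vehicle (0.1% DMSO) set to 100%, cell-free medium set to −100%, day 0 corrected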
BRD3 (His-Brd3(20-477)) = BRD3 (His-Brd3(20-477)) (Homo sapiens (Human), UniProt Q15059); test: TR-FRET in-vitro binding assay for BRD3; conditions: single determination or n ≧ 2 independent determinations, read-out: Biochemical IC50 BRD3
Chain of BRD3 (His-Brd3(20-477)) (Q15059 20-477): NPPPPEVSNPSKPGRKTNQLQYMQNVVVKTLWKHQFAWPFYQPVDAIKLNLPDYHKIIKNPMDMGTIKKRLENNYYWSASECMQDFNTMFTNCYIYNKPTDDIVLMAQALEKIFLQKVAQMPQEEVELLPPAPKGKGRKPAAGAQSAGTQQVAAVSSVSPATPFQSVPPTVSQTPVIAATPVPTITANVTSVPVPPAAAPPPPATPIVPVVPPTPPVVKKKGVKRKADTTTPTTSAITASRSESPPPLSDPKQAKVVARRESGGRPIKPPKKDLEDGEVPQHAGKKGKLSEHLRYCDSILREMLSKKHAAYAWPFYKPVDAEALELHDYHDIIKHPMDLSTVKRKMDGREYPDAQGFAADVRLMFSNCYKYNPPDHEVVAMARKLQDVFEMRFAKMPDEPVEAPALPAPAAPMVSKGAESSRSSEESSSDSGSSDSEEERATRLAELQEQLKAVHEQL
Procedure: as §1, §2, §3, §4, §5, §6, §7

[1] = molecular target: CREBBP bromodomain (His-CREBBP(1081-1197)) (Homo sapiens (Human), UniProt Q92793); test: AlphaScreen in-vitro binding assay for CREBBP; conditions: single determination or n ≧ 2 independent determinations, read-out: Biochemical IC50 CREBBP
Chain of CREBBP bromodomain (His-CREBBP(1081-1197)) (Q92793 1081-1197): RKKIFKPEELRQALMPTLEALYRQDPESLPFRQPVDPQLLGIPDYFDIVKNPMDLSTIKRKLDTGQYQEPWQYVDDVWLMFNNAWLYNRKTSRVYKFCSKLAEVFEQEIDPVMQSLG
Procedure: AlphaScreen In-Vitro Binding Assay for CREBBP
In order to assess bromodomain selectivity, we set up a binding assay using the bromodomain encoded by the CREBBP gene. […] Reactions were incubated at 30° C. for 35 minutes. Subsequently 4.5 μl per well detection mix (50 mM HEPES, pH 7.5, 0.005% Tween20, 0.02% BSA, 150 mM NaCl, 45 μg/ml Ni-chelate acceptor beads, 45 μg/mIstreptavidin-donor beads) (Perkin Elmer)) were added. After 60 minutes incubation at room temperature, plates were measured in a Perkin Elmer EnVision multilabel reader. IC50 values were determined from percent inhibition values at different compound concentrations by non-linear regression analysis.
as §3, §4, §5, §6, §7

Row | IC50 (BRD4 (His-Brd4(44-477))) | GI50 (THP-1 cells) | GI50 (K-562 cells) | GI50 (MV-4-11 cells) | IC50 (BRD3 (His-Brd3(20-477))) | IC50 [1] | Structure (SMILES) | THP-1 TGI (THP-1 cells) | K-562 TGI (K-562 cells) | MV-4-11 TGI (MV-4-11 cells)
1 | 71.5 nM | 47.4 nM | 270 nM | 40.6 nM | 46 nM | 8050 nM | Cc1cc(N2C(=O)c3nc(C)n(C4COC4)c3C2c2ccc(Cl)cc2)cc2c1nnn2C (centres unmarked) [Example 94, 6-(4-chlorophenyl)-5-(1,4-dimethyl-1H-benzo[d][1,2,3]triazol-6-yl)-2-methyl-1-(oxetan-3-yl)-5,6-dihydropyrrolo[3,4-d]imidazol-4(1H)-one] | 94.35 nM | >10000 nM | 68.7 nM
2 | 11.5 nM | 5.03 nM | 41 nM | 4.37 nM | 13 nM | > 37000 nM | Cc1cc(N2C(=O)c3nc(C4=CCOCC4)[nH]c3C2c2ccc(Cl)cc2)nc2c1nnn2C (centres unmarked) [Example 162, 6-(4-chlorophenyl)-2-(3,6-dihydro-2H-pyran-4-yl)-5-(3,7-dimethyl-3H-[1,2,3]triazolo[4,5-b]pyridin-5-yl)-5,6-dihydropyrrolo[3,4-d]imidazol-4(1H)-one] | 10.54 nM | >7000 nM | 11.12 nM
3 | – | 8.82 nM | 56.8 nM | 10.6 nM | – | – | COc1ncccc1-c1nc2c(n1C(C)C)C(c1ccc(Cl)cc1)N(c1cc(C)c3nnn(C)c3n1)C2=O (centres unmarked) [Example 157, 6-(4-chlorophenyl)-5-(3,7-dimethyl-3H-[1,2,3]triazolo[4,5-b]pyridin-5-yl)-1-isopropyl-2-(2-methoxypyridin-3-yl)-5,6-dihydropyrrolo[3,4-d]imidazol-4(1H)-one] | 24.75 nM | >10000 nM | 15.15 nM
4 | 30 nM | 79.4 nM | 227 nM | 76.6 nM | 32 nM | 2600 nM | COc1cc(C(F)(F)F)ccc1-c1nc2c([nH]1)C(c1ccc(Cl)cc1)N(c1cc(C)c3nnc(C)n3c1)C2=O (centres unmarked) [Example 136, 6-(4-chlorophenyl)-5-(3,8-dimethyl-[1,2,4]triazolo[4,3-a]pyridin-6-yl)-2-(2-methoxy-4-(trifluoromethyl)phenyl)-5,6-dihydropyrrolo[3,4-d]imidazol-4(1H)-one] | 179.5 nM | >10000 nM | 114 nM
5 | 25 nM | 62.7 nM | 244 nM | 34.4 nM | 22.5 nM | 525 nM | Cc1cc(N2C(=O)c3nc(C4=CCOCC4)[nH]c3[C@H]2c2ccc(Cl)cc2)cn(C)c1=O [Example 152, (R)-6-(4-chlorophenyl)-2-(3,6-dihydro-2H-pyran-4-yl)-5-(1,5-dimethyl-6-oxo-1,6-dihydropyridin-3-yl)-5,6-dihydropyrrolo[3,4-d]imidazol-4(1H)-one] | 135.5 nM | >10000 nM | 57.3 nM
6 | – | 81 nM | 207 nM | 69.5 nM | – | – | COc1ccc(-c2nc3c([nH]2)C(c2ccc(Cl)cc2)N(c2cc(C)c4nnc(C)n4c2)C3=O)cn1 (centres unmarked) [Example 117, 6-(4-chlorophenyl)-5-(3,8-dimethyl-[1,2,4]triazolo[4,3-a]pyridin-6-yl)-2-(6-methoxypyridin-3-yl)-5,6-dihydropyrrolo[3,4-d]imidazol-4(1H)-one] | 129 nM | >10000 nM | 112 nM
7 | 84.5 nM | 101 nM | 254 nM | 90.2 nM | 89 nM | – | COc1cc(F)ccc1-c1nc2c([nH]1)C(c1ccc(Cl)cc1)N(c1cc(C)c3nnc(C)n3c1)C2=O (centres unmarked) [Example 137] | 213 nM | >10000 nM | 124.5 nM

Second part, the molecule before the results:

Row | Structure (SMILES) | IC50 (BRD4 (His-Brd4(44-477))) | GI50 (THP-1 cells) | GI50 (K-562 cells) | GI50 (MV-4-11 cells) | IC50 (BRD3 (His-Brd3(20-477))) | IC50 [1] | THP-1 TGI (THP-1 cells) | K-562 TGI (K-562 cells) | MV-4-11 TGI (MV-4-11 cells)
8 | Cc1cc(N2C(=O)c3nc(C4=CCOCC4)n(C(C)C)c3C2c2ccc(Cl)cc2)nc2c1nnn2C (centres unmarked) [Example 160, 6-(4-chlorophenyl)-2-(3,6-dihydro-2H-pyran-4-yl)-5-(3,7-dimethyl-3H-[1,2,3]triazolo[4,5-b]pyridin-5-yl)-1-isopropyl-5,6-dihydropyrrolo[3,4-d]imidazol-4(1H)-one] | < 11 nM | 4.6 nM | 25.8 nM | 5.95 nM | < 11 nM | > 37000 nM | 6.383 nM | >7000 nM | 4.973 nM
9 | Cc1cc(N2C(=O)c3nc(C4=CCOCC4)n(C(C)C)c3[C@H]2c2ccc(Cl)cc2)nc2c1nnn2C [Example 164, (R)-6-(4-chlorophenyl)-2-(3,6-dihydro-2H-pyran-4-yl)-5-(3,7-dimethyl-3H-[1,2,3]triazolo[4,5-b]pyridin-5-yl)-1-isopropyl-5,6-dihydropyrrolo[3,4-d]imidazol-4(1H)-one] | < 11 nM | 1.12 nM | 13.2 nM | 0.887 nM | < 11 nM | 11200 nM | 2.43 nM | >10000 nM | 1.83 nM
10 | Cc1cc(N2C(=O)c3nc(C4=CCN(C)CC4)n(C4COC4)c3C2c2ccc(Cl)cc2)cc2c1nnn2C (centres unmarked) [Example 96, 6-(4-chlorophenyl)-5-(1,4-dimethyl-1H-benzo[d][1,2,3]triazol-6-yl)-2-(1-methyl-1,2,3,6-tetrahydropyridin-4-yl)-1-(oxetan-3-yl)-5,6-dihydropyrrolo[3,4-d]imidazol-4(1H)-one] | 39 nM | 202 nM | 351 nM | 79.3 nM | 33.5 nM | 3950 nM | 273.6 nM | >10000 nM | 120.6 nM
11 | Cc1cc(N2C(=O)c3nc(C4CCOC4)n(C(C)C)c3C2c2ccc(Cl)cc2)cc2c1nnn2C (centres unmarked) [Example 99, 6-(4-chlorophenyl)-5-(1,4-dimethyl-1H-benzo[d][1,2,3]triazol-6-yl)-1-isopropyl-2-(tetrahydrofuran-3-yl)-5,6-dihydropyrrolo[3,4-d]imidazol-4(1H)-one] | 16 nM | – | – | – | 18 nM | 960 nM | – | – | –
12 | Cc1cc(N2C(=O)c3nc(C4CCOC4)n(C(C)C)c3C2c2ccc(Cl)cc2)nn2c(C)nnc12 (centres unmarked) [Example 170, 6-(4-chlorophenyl)-5-(3,8-dimethyl-[1,2,4]triazolo[4,3-b]pyridazin-6-yl)-1-isopropyl-2-(tetrahydrofuran-3-yl)-5,6-dihydropyrrolo[3,4-d]imidazol-4(1H)-one] | 31 nM | – | – | – | 43 nM | > 37000 nM | – | – | –
13 | Cc1nc2c([nH]1)C(c1ccc(Cl)cc1)N(c1cc(C)c3nnn(C)c3c1)C2=O (centres unmarked) [Example 1, 6-(4-chlorophenyl)-5-(3,7-dimethyl-3H-benzo[d][1,2,3]triazol-5-yl)-2-methyl-5,6-dihydropyrrolo[3,4-d]imidazol-4(1H)-one] | – | 38.4 nM | 160 nM | 26.3 nM | – | – | 79.9 nM | >10000 nM | 52.35 nM
14 | Cc1cc(N2C(=O)c3nc(C4CCOC4)n(C(C)C)c3[C@H]2c2ccc(Cl)cc2)nn2c(C)nnc12 (stereo partly drawn) [Example 171, (6R)-6-(4-chlorophenyl)-5-(3,8-dimethyl-[1,2,4]triazolo[4,3-b]pyridazin-6-yl)-1-isopropyl-2-(tetrahydrofuran-3-yl)-5,6-dihydropyrrolo[3,4-d]imidazol-4(1H)-one] | 12 nM | – | – | – | < 11 nM | 17800 nM | – | – | –
